Source: ChEMBL document CHEMBL1137798, “Evaluation of natural products as inhibitors of human immunodeficiency virus type 1 (HIV-1) reverse transcriptase” (J Nat Prod, 1991)
Where a name gives a salt, the structure may show the parent alone.

Biological target: Human immunodeficiency virus type 1 reverse transcriptase (Human immunodeficiency virus 1, UniProt Q72547)
Conditions: read-out: IC50 (converted)

| SMILES | IC50 |
| --- | --- |
| O=c1ccc2cc(O[C@@H]3O[C@H](CO)[C@@H](O)[C@H](O)[C@H]3O)c(O)cc2o1 [ESCULIN] | > 588 µM |
| C/C=C/C=C1\C=Cc2c(C(=O)OC)coc(=O)c21 [FULVOPLUMIERIN] | 184 µM |
| COc1cc(O)c2c(=O)cc(-c3ccc(O)cc3)oc2c1 [GENKWANIN] | > 704 µM |
| CC(C)=CCC[C@](C)(O[C@@H]1O[C@H](CO[C@@H]2O[C@H](CO)[C@@H](O)[C@H](O)[C@H]2O)[C@@H](O)[C@H](O)[C@H]1O)[C@H]1CC[C@]2(C)[C@@H]1[C@H](O)C[C@@H]1[C@@]3(C)CC[C@H](O[C@@H]4O[C@H](CO)[C@@H](O)[C@H](O)[C@H]4O[C@@H]4O[C@H](CO)[C@@H](O)[C@H](O)[C@H]4O)C(C)(C)[C@@H]3CC[C@]12C [GINSENOSIDE RB1] | > 180 µM |
| CC(C)=CCC[C@](C)(O[C@@H]1O[C@H](CO)[C@@H](O)[C@H](O)[C@H]1O)[C@H]1CC[C@]2(C)[C@@H]1[C@H](O)C[C@@H]1[C@@]3(C)CC[C@H](O)C(C)(C)[C@@H]3[C@@H](O[C@@H]3O[C@H](CO)[C@@H](O)[C@H](O)[C@H]3O[C@@H]3O[C@@H](C)[C@H](O)[C@@H](O)[C@H]3O)C[C@]12C [GINSENOSIDE RE] | > 211 µM |
| COC(=O)C[C@](O)(CCC(C)(C)O)C(=O)O[C@@H]1C(OC)=C[C@]23CCCN2CCc2cc4c(cc2[C@H]13)OCO4 [HARRINGTONINE] | > 376 µM |
| COc1ccc2cc1Oc1ccc(cc1)C[C@H]1c3cc(c(OC)cc3CCN1C)Oc1c(OC)c(OC)c(OC)c3c1[C@H](C2)N(C)CC3 [HERNANDEZINE] | > 306 µM |
| COc1ccc2c(c1OC)C(=O)O[C@@H]2[C@H]1c2cc3c(cc2CCN1C)OCO3 [HYDRASTINE] | > 522 µM |
| CC(C)[C@](O)(C(=O)OCC1=CC[N+]2([O-])CC[C@@H](O)[C@@H]12)[C@H](C)O (some centres undefined) [INDICINE N-OXIDE] | > 634 µM |
| Cn1cncc1C[C@H]1COC(=O)[C@@H]1[C@@H](O)c1ccccc1 [ISOPILOSINE] | > 698 µM |
| COC(=O)[C@H]1[C@H]2C[C@@H]3c4[nH]c5ccccc5c4CCN3C[C@H]2C[C@@H](O)[C@@H]1OC(=O)c1cc(OC)c(OC)c(OC)c1 [ISORAUNESCINE] | > 354 µM |
| COC(=O)CC1(O)C=CC(=O)C=C1 [JACARANONE] | > 1100 µM |
| COc1cc2c(cc1O)CC[n+]1cc3c(OC)c(OC)ccc3cc1-2 [JATRORRHIZINE CHLORIDE] | 190 µM |
| O=c1c(O)c(-c2ccc(O)cc2)oc2cc(O)cc(O)c12 [KAEMPFEROL] | < 524 µM |
| COc1c2occc2c(OC)c2c(=O)cc(C)oc12 [KHELLIN] | > 769 µM |
| C/C=C(/C)C(=O)O[C@H]1CCN2CC=C(COC(=O)[C@](O)([C@H](C)OC)C(C)(C)O)[C@H]12 [LASIOCARPINE] | > 486 µM |
| O=C1CCC[C@H]2[C@@H]3CCCN4CCC[C@H](CN12)[C@@H]34 [LEONTINE] | > 805 µM |
| CC1(C)O[C@H]2CC(=O)OC[C@]23[C@H]2CC[C@@]4(C)[C@H](c5ccoc5)OC(=O)[C@H]5O[C@]54[C@]2(C)C(=O)C[C@@H]13 [LIMONIN] | > 425 µM |
| COc1cc([C@H]2OC[C@H]3[C@@H]2CO[C@@H]3c2cc(OC)c(O[C@@H]3O[C@H](CO)[C@@H](O)[C@H](O)[C@H]3O)c(OC)c2)cc(OC)c1O[C@@H]1O[C@H](CO)[C@@H](O)[C@H](O)[C@H]1O [LIRIODENDRIN] | > 269 µM |
| C/C=C1/CN2[C@H]3C[C@@H]1[C@@H](CO)[C@@H]2Cc1c3[nH]c2ccc(OC)cc12 [LOCHNERINE] | > 616 µM |

| SMILES | IC50 |
| --- | --- |
| COc1cc2cc(c1Cl)N(C)C(=O)C[C@H](OC(=O)[C@H](C)N(C)C(C)=O)[C@]1(C)O[C@H]1[C@H](C)[C@@H]1C[C@@](O)(NC(=O)O1)[C@H](OC)/C=C/C=C(\C)C2 [MAYTANSINE] | > 289 µM |
| COc1c(O)c2c3c(nccc3c1OC)C(C)(C)c1cc(O)ccc1-2 [MELOSMINE] | > 593 µM |
| C[C@H]1C(=O)O[C@@H]2CCN3CC=C(COC(=O)[C@](C)(O)[C@]1(C)O)[C@H]23 [MONOCROTALINE] | > 615 µM |
| COc1ccc(C(=O)Cc2c(CCN(C)C)cc3c(c2OC)OCO3)c(C(=O)O)c1OC [NARCEINE] | > 449 µM |
| COc1c([N+](=O)[O-])c2c(c3c1c(=O)c1ccccc1n3C)C=CC(C)(C)O2 [NITROACRONYCINE] | > 546 µM |
| CC(=O)O[C@H]1CC(=O)OC(C)(C)[C@@H]2CC(=O)[C@]3(C)[C@H](CC[C@@]4(C)[C@@H](c5ccoc5)OC(=O)[C@H]5O[C@]543)[C@@]12C [NOMILIN] | > 389 µM |
| COC(=O)C[C@](O)(CCCC(C)(C)O)C(=O)O[C@@H]1C(OC)=C[C@]23CCCN2CCc2cc4c(cc2[C@H]13)OCO4 [OMACETAXINE MEPESUCCINATE] | > 367 µM |
| C1CN[C@@H]2[C@@H](C1)[C@@H]1CC2([C@H]2CCC[C@H](C3CC[C@@H]4N[C@H]3N3CCC[C@H]5C[C@@H]6C[C@]4(CN4CCCC[C@H]64)[C@@H]53)N2)CN2CCCC[C@H]12 (some centres undefined) [ORMOSININE] | > 324 µM |
| C[C@@H]1O[C@@H](O[C@H]2C[C@@H](O)[C@]3(CO)[C@H]4[C@H](O)C[C@]5(C)[C@@H](C6=CC(=O)OC6)CC[C@]5(O)[C@@H]4CC[C@]3(O)C2)[C@H](O)[C@H](O)[C@H]1O [OUABAIN] | > 342 µM |
| CC(=O)O[C@H]1C(=O)[C@@]2(C)[C@H]([C@H](OC(=O)c3ccccc3)[C@]3(O)C[C@H](OC(=O)[C@H](O)[C@@H](NC(=O)c4ccccc4)c4ccccc4)C(C)=C1C3(C)C)[C@]1(OC(C)=O)CO[C@@H]1C[C@@H]2O [PACLITAXEL] | > 234 µM |
| C1CCN2C[C@]34C[C@H](C[C@@H]5CCCN([C@@H]6CCC[C@@H]3N6)[C@H]54)[C@H]2C1 [PANAMINE DIPERCHLORATE] | > 387 µM |
| C1CCN2C[C@]34C[C@H](C[C@@H]5CCCN([C@@H]6CCC[C@@H]3N6)[C@H]54)[C@H]2C1 [PANAMINE] | > 634 µM |
| COc1ccc(Cc2nccc3cc(OC)c(OC)cc23)cc1OC [PAPAVERINE] | < 589 µM |
| CC(=O)O[C@@H]1[C@H]2[C@H]3C[C@H]4C5=Nc6ccccc6[C@]51C[C@@H]2N4[C@H](C)C3C=O (some centres undefined) [PERAKINE] | > 571 µM |
| C=C1c2cc3[nH]ccc3cc2CN2CC[C@@H]1/C(=C\C)C2 [PERICALLINE] | > 757 µM |
| C/C=C1/C=[N+]2[C@H]3C[C@H]1[C@H](C(=O)OC)[C@@H]2Cc1c3[nH]c2ccc(O)cc12 [PERICYCLIVINE] | > 593 µM |
| C/C=C1/CN(C=O)[C@H]2Cc3c([nH]c4ccccc34)C(=O)C[C@@H]1[C@@H]2C(=O)OC [PERIFORMYLINE] | > 546 µM |
| C/C=C1/CN[C@H]2Cc3c([nH]c4ccccc34)C(=O)C[C@@H]1[C@@H]2C(=O)OC [PERIVINE] | > 591 µM |
| CNC[C@H](O)c1cccc(O)c1 [PHENYLEPHRINE] | > 1200 µM |
| CC(=O)O[C@@H]1[C@@H](O)[C@H](O[C@H]2[C@H](OC(=O)[C@H]3CC[C@@H]4[C@H](C3)O[C@@]3(C[C@H](OC(=O)/C=C/c5ccccc5)[C@H](C)CO3)[C@]43CO3)O[C@H](C)[C@@H](O)[C@@H]2OC(C)=O)O[C@H](C)[C@H]1O [PHYLLANTHOSIDE] | > 248 µM |

| SMILES | IC50 |
| --- | --- |
| C=C(C)[C@@H]1[C@H]2OC(=O)[C@@H]1[C@]1(O)C[C@H]3OC34C(=O)O[C@H]2[C@@]41C.CC(C)(O)[C@@H]1[C@H]2OC(=O)[C@@H]1[C@]1(O)C[C@H]3OC34C(=O)O[C@H]2[C@@]41C (some centres undefined) [PICROTOXIN] | > 332 µM |
| C/C=C1/C(=O)O[C@]23C=C[C@@H]4C(C(=O)OC)=CO[C@H](O[C@@H]12)[C@@H]43 [PLUMERICIN] | > 689 µM |
| COC(=O)C1=CO[C@@H](O[C@@H]2O[C@H](CO)[C@@H](O)[C@H](O)[C@H]2O)[C@H]2[C@@H]1C=C[C@@]21C=C([C@H](C)O)C(=O)O1 [PLUMIERIDE] | > 425 µM |
| CC(C)(O)CC[C@@H](O)[C@](C)(O)[C@H]1CC[C@@]2(O)C3=CC(=O)[C@]4(O)C[C@@H](O)[C@@H](O)C[C@]4(C)[C@H]3CC[C@]12C [POLYPODIN] | > 403 µM |
| CC1(C)CC[C@]2(CO)[C@H](O)C[C@]3(C)C(=CC[C@@H]4[C@@]5(C)CC[C@H](O)C(C)(C)[C@@H]5CC[C@]43C)[C@@H]2C1 [PRIMULAGENIN] | > 436 µM |
| O=c1c(O)c(-c2ccc(O)c(O)c2)oc2cc(O)cc(O)c12 [QUERCETIN] | < 662 µM |
| C=C[C@H]1C[N@@]2CC[C@H]1C[C@@H]2[C@@H](O)c1ccnc2ccc(OC)cc12 [QUINIDINE SULFATE] | > 511 µM |
| COC(=O)C1=CO[C@H](C)[C@@H]2CN3CCc4c([nH]c5ccccc45)[C@@H]3C[C@H]12 [RAUNITICINE] | > 567 µM |
| COC(=O)C1=CO[C@H](C)[C@@H]2CN3CCc4c([nH]c5cc(OC)ccc45)[C@@H]3C[C@H]12 [RAUNITIDINE] | > 523 µM |
| C/C=C1/C[C@@H](C)[C@](O)(CO)C(=O)OCC2=CCN3CC[C@@H](OC1=O)[C@@H]23 [RETRORSINE] | > 569 µM |
| C=C(C)[C@H]1Cc2c(ccc3c2O[C@@H]2COc4cc(OC)c(OC)cc4[C@]2(O)C3=O)O1 [ROTENOLONE] | > 487 µM |
| C=C(C)[C@H]1Cc2c(ccc3c2O[C@@H]2COc4cc(OC)c(OC)cc4[C@@H]2C3=O)O1 [ROTENONE] | > 507 µM |
| C[n+]1cc2c3c(ccc2c2ccc4cc5c(cc4c21)OCO5)OCO3 [SANGUINARINE NITRATE] | < 380 µM |
| C/C=C1/CN2[C@H]3C[C@H]1[C@@H](CO)[C@@H]2Cc1c3[nH]c2ccc(O)cc12 [SARPAGINE] | > 644 µM |
| O=C1C[C@]23C=CCN4CC[C@H]5c6cc7c(cc6N1[C@@]5(CC2)[C@@H]43)OCO7 [SCHIZOZYGINE] | > 595 µM |
| CN1[C@@H]2C[C@@H](OC(=O)[C@H](CO)c3ccccc3)C[C@H]1[C@@H]1O[C@@H]12 [SCOPOLAMINE HYDROBROMIDE] | > 456 µM |
| C/C=C1/C[C@@H](C)[C@@](C)(O)C(=O)OCC2=CCN3CC[C@@H](OC1=O)[C@@H]23 [SENECIONINE] | > 596 µM |
| C=C1C/C(=C/C)C(=O)O[C@@H]2CCN3CC=C(COC(=O)[C@]1(C)O)[C@H]23 [SENECIPHYLLINE] | > 600 µM |
| CC(=O)N[C@H]1[C@@H](O[C@H]2[C@H](O)[C@@H](O)[C@H](O[C@H]3[C@H](CS(=O)(=O)O)[C@@H](OS(=O)(=O)O)[C@@H](O[C@H]4[C@H](O)[C@@H](OS(=O)(=O)O)C(O)O[C@H]4C(=O)O)O[C@@H]3O)O[C@@H]2C(=O)O)O[C@H](COS(=O)(=O)O)[C@@H](O)[C@@H]1O (some centres undefined) [SODIUM HEPARIN] | > 192 µM |
